Reference: ChEMBL document CHEMBL1201862, “PubChem BioAssay data set” (2004)
Active and inactive are the calls of the source.

What was measured:
[1] = T. cruzi growth inhibition in host cells, dose response, cell-based, plate reader, dry powder, set 2 (AID 652275); type: functional
[2] = blockers of HIV-1 envelope-mediated cell-cell fusion – cherry-pick, dose response (AID 652057); type: functional, cell-based
[3] = blockers of HIV-1 ZM109 envelope-driven cell-cell fusion – HeLa effector, CEM target cells, luciferase, cherry-pick, dose response (AID 652058); type: functional, cell-based;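 note: luciferase signal from HIV-1 Env mediated cell-cell fusion of effector and target cells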
[4] = off-target signal loss in HeLa-CEM21 co-culture – HeLa F-luc CTL cells, cherry-picked, counter-screen for HIV-1 Env fusion inhibitor project, dose response (AID 652040); type: functional, cell-based;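 note: potency for signal decrease marking cytotoxic or nonspecific inhibition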
[5] = HIV-1 AD8 envelope cell-cell fusion blockers – cherry-pick, dose response (AID 652062); type: functional, cell-based;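 note: luciferase signal from cell-cell fusion driven by HIV-1 clade B AD8 Env; potency is for inhibitors of fusion seen as a drop in luminescence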

Compound | AC50 [1] | AC50 [2] | AC50 [3] | AC50 [4] | AC50 [5]
CC(C)(C)[S+]([O-])N1Cc2cc(C(=O)NCc3ccc4c(c3)OCO4)nc(-c3cccc(-c4cccc(F)c4)c3)c2[C@@H]1CCO (stereo partly specified) | 1.74 µM (active) | – | – | – | –
CCN1C(=O)[C@H]2[C@@H](c3ccc(C)cc3)N3C(=O)N(c4ccc(C(F)(F)F)cc4)C(=O)[C@@]3(CC(C)C)[C@H]2C1=O | – | 2 µM (active) | 3.63 µM (active) | 2.35 µM (active) | 4.99 µM (active)
CN(C)C(=O)c1cccc(-c2ccc([C@@H]3[C@H](CO)N4CCCCN(C(=O)C5CCC5)C[C@@H]34)cc2)c1 | 4.83 µM (active) | – | – | – | –
